Experiment: in vitro
Conditions: human, liver microsomes
Description: Half life in human liver microsome at 2 mg/mL

half-life	Structure (SMILES)
0.233 h	CN(C)CCOc1cc(-c2cn[nH]c2)ccc1NC(=O)C1NCCc2ccccc21 (stereo not drawn)
1.05 h	COc1ccc2c(c1)C[C@H](C(=O)Nc1ccc(-c3cn[nH]c3)cc1OCCN1CCCC1)NC2
0.05 h	COc1ccc2c(c1)C[C@H](C(=O)Nc1ccc(-c3cn[nH]c3)cc1SCCC(=O)N(C)C)NC2
1.87 h	COc1ccc2c(c1)C[C@H](C(=O)Nc1c(F)cc(-c3cn[nH]c3)cc1OCCN(C)C)NC2
1.12 h	N[C@H](Cc1cccc(F)c1)C(=O)Nc1ccc(-c2cn[nH]c2)cc1
1.2 h	COc1ccc2c(c1)C[C@H](C(=O)Nc1ccc(-c3cn[nH]c3)c(F)c1OCCN(C)C)NC2
0.717 h	COCCOc1cc(-c2cn[nH]c2)ccc1NC(=O)[C@H]1Cc2cc(OC)ccc2CN1
2.02 h	CN(C)CCOc1cc(-c2cn[nH]c2)ccc1NC(=O)[C@H]1Cc2cc(Cl)ccc2CN1
